This note sets out measurements from ChEMBL document CHEMBL1201862, “PubChem BioAssay data set” (2004).

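Protocol summary: plate cells (96-well), add compound at 5 concentrations, incubate 48 h, interpolate endpoints linearly. Abbreviation: GI50, concentration required for 50% inhibition of growth.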 The source made the active and inactive calls. Cut-off read from the data, not from the text of the source: active = GI50 up to about 1.1 µM and inactive = higher.

Some test systems named below: 786-0; A549; HCT-116; HOP-92; HT-29; K562; LOX IMVI; Malme-3M; NCI-H23; OVCAR-3; OVCAR-4; OVCAR-5; PC-3; RXF 393; SF-268; SK-MEL-2; SK-MEL-5; SK-OV-3; UO-31; NCI-H226.
Assay in all cases: growth of human tumour cells (NCI), 48 h

On to `O=C1/C(=C\c2cccc(Oc3ccccc3)c2)SC(c2ccccc2)N1c1cc(Cl)ccc1Cl` (centres undefined), for which the GI50 was 27 µM (inactive) with 786-0; 51.5 µM (inactive) with A549; 17.2 µM (inactive) in the assay with HCT-116; 17.7 µM (inactive) in the assay with HOP-92; 30.8 µM (inactive) in the assay on HT-29; 21.2 µM (inactive) with K562. In addition, the GI50 is 16.8 µM (inactive) in the assay on LOX IMVI; 28.2 µM (inactive) with Malme-3M; 33.4 µM (inactive) in the assay with NCI-H23; 24.8 µM (inactive) in the assay with OVCAR-3; 51.2 µM (inactive) with OVCAR-4; 59 µM (inactive) in the assay with OVCAR-5. The GI50 with PC-3 is 52.4 µM (inactive); in the assay on RXF 393 it was 22.8 µM (inactive); in the assay with SF-268, 22.2 µM (inactive); in the assay with SK-MEL-2 it was 43.5 µM (inactive); in the assay with SK-MEL-5, 27 µM (inactive); in the assay with SK-OV-3, > 100 µM (inactive). Also, the GI50 in the assay with UO-31 is 37.2 µM (inactive).

As for `Oc1ccc(/C=N/c2ccccc2O)cc1`, the GI50 in the assay with 786-0 was 23.3 µM (inactive); with A549, 54.2 µM (inactive); with HCT-116, 50.1 µM (inactive); in the assay with HOP-92 it was > 100 µM (inactive); with HT-29, 69 µM (inactive); with K562, 24.7 µM (inactive). The GI50 with LOX IMVI was 26.1 µM (inactive); in the assay with NCI-H226 it was 94.6 µM (inactive); in the assay with NCI-H23 it was 30.3 µM (inactive); in the assay on OVCAR-3, 40 µM (inactive); in the assay on OVCAR-4, > 100 µM (inactive); in the assay on OVCAR-5 it was > 100 µM (inactive). The GI50 in the assay with PC-3 was 34.1 µM (inactive); in the assay on RXF 393 it was > 100 µM (inactive); in the assay on SF-268, 96.6 µM (inactive); in the assay on SK-MEL-2, 21.9 µM (inactive); in the assay on SK-MEL-5 it was 20.2 µM (inactive); in the assay on SK-OV-3 it was > 100 µM (inactive). In addition, in the assay on UO-31, the GI50 was 25.9 µM (inactive).

Consider `c1ccc(-c2ccc(-c3ccc(C4=NCCN4)cc3)o2)cc1`, for which the GI50 with 786-0 was 1.68 µM (inactive); in the assay on A549 it was 2.64 µM (inactive); with HCT-116, 1.77 µM (inactive); in the assay on HOP-92, 2.17 µM (inactive); with HT-29, 1.77 µM (inactive); with K562, 1.42 µM (inactive). The GI50 is 1.93 µM (inactive) with LOX IMVI; 2.99 µM (inactive) in the assay with NCI-H226; 4.32 µM (inactive) in the assay on NCI-H23; 5.5 µM (inactive) with OVCAR-3; 6.11 µM (inactive) in the assay with OVCAR-4; 2.69 µM (inactive) in the assay on OVCAR-5. Moreover, the GI50 with PC-3 is 2.23 µM (inactive); with RXF 393, 2.56 µM (inactive); with SF-268, 2.8 µM (inactive); with SK-MEL-2, 1.87 µM (inactive); in the assay on SK-MEL-5 it was 2.08 µM (inactive); in the assay with SK-OV-3 it was 5.36 µM (inactive). Besides, in the assay with UO-31, the GI50 is 1.71 µM (inactive).

With `C/C(=N/NC(=S)Nc1ccc([N+](=O)[O-])cc1)c1cccc(/C(C)=N\NC(=S)Nc2ccc([N+](=O)[O-])cc2)n1`, the GI50 in the assay with 786-0 is 0.264 µM (active); in the assay on A549, 0.594 µM (active); with HCT-116, 0.291 µM (active); in the assay with HOP-92 it was 0.782 µM (active); in the assay with HT-29 it was 0.628 µM (active); in the assay on K562, 0.569 µM (active). In addition, the GI50 was 0.313 µM (active) with LOX IMVI; 0.515 µM (active) with Malme-3M; 0.193 µM (active) with NCI-H226; 0.877 µM (active) in the assay on NCI-H23; 0.0867 µM (active) in the assay on OVCAR-3; 0.959 µM (active) with OVCAR-4. The GI50 with OVCAR-5 was 2.29 µM (inactive); in the assay on PC-3, 0.6 µM (active); with RXF 393, 0.53 µM (active); in the assay on SK-MEL-2, 3.99 µM (inactive); in the assay on SK-MEL-5 it was 0.353 µM (active); in the assay on SK-OV-3, 2.13 µM (inactive). Also, the GI50 with UO-31 is 0.382 µM (active).

`COC(=O)/C=C/c1ccc2c(c1)CC1(Cc3ccccc3C1)C2`: the GI50 in the assay with 786-0 is > 100 µM (inactive); in the assay with A549 it was 0.0463 µM (active); in the assay on HCT-116 it was 0.0478 µM (active); in the assay on HOP-92, > 100 µM (inactive); with HT-29, 79.4 µM (inactive); in the assay on K562, 37.5 µM (inactive). For the same compound, the GI50 was > 100 µM (inactive) in the assay on LOX IMVI; > 100 µM (inactive) with Malme-3M; > 100 µM (inactive) with NCI-H226; 55.7 µM (inactive) with NCI-H23; > 100 µM (inactive) with OVCAR-3; > 100 µM (inactive) in the assay on OVCAR-4. Besides, the GI50 in the assay with OVCAR-5 was > 100 µM (inactive); in the assay on PC-3, > 100 µM (inactive); in the assay on RXF 393, 16.5 µM (inactive); with SK-MEL-2, > 100 µM (inactive); with SK-MEL-5, 43.2 µM (inactive); with SK-OV-3, > 100 µM (inactive). Further, the GI50 with UO-31 is > 100 µM (inactive).

For the compound `COc1ccc(/C=C/C(=N/NC(=O)N/N=C(/C=C/c2ccc(OC)cc2)C(C)(C)CN2CCCCC2)C(C)(C)CN2CCCCC2)cc1`, the GI50 with 786-0 was 1.59 µM (inactive); in the assay with A549, 1.86 µM (inactive); in the assay on HCT-116, 1.33 µM (inactive); with HOP-92, 1.47 µM (inactive); in the assay with HT-29 it was 1.58 µM (inactive); in the assay on K562 it was 0.467 µM (active). Further, the GI50 with LOX IMVI was 1.37 µM (inactive); in the assay on Malme-3M, 1.92 µM (inactive); in the assay on NCI-H226, 1.5 µM (inactive); in the assay with NCI-H23, 3.03 µM (inactive); with OVCAR-3 it was 1.87 µM (inactive); with OVCAR-4, 1.88 µM (inactive). Besides, the GI50 in the assay with OVCAR-5 was 2.96 µM (inactive); in the assay on PC-3, 2.28 µM (inactive); in the assay with RXF 393, 1.35 µM (inactive); with SK-MEL-2, 1.62 µM (inactive); in the assay on SK-MEL-5, 1.63 µM (inactive); in the assay on SK-OV-3, 1.98 µM (inactive). Also, the GI50 with UO-31 is 1.58 µM (inactive).

For the compound `OC1(C(O)(c2ccc(-c3ccccc3)cc2)c2ccc(-c3ccccc3)cc2)CCCCC1`, the GI50 is > 100 µM (inactive) in the assay with 786-0; 81.5 µM (inactive) in the assay on A549; > 100 µM (inactive) in the assay with HCT-116; > 100 µM (inactive) in the assay with HOP-92; 87.9 µM (inactive) in the assay on HT-29; > 100 µM (inactive) in the assay with K562. The GI50 in the assay with LOX IMVI, in the assay on NCI-H226, in the assay on NCI-H23, with OVCAR-3, with OVCAR-4 and in the assay on OVCAR-5 was > 100 µM (inactive) throughout. For the same compound, the GI50 in the assay with PC-3 is > 100 µM (inactive); in the assay with RXF 393, > 100 µM (inactive); in the assay on SF-268, > 100 µM (inactive); in the assay on SK-MEL-2 it was > 100 µM (inactive); in the assay with SK-MEL-5 it was 63.4 µM (inactive); in the assay on SK-OV-3 it was > 100 µM (inactive). Also, the GI50 in the assay with UO-31 was > 100 µM (inactive).

Take `CC(=O)Oc1cc(/C=C/c2ccc(O)cc2)cc(OC(C)=O)c1`: the GI50 with 786-0 was 37.5 µM (inactive); in the assay with A549, 24.8 µM (inactive); in the assay with HCT-116, 35.6 µM (inactive); with HOP-92 it was 25 µM (inactive); in the assay with HT-29, 19.3 µM (inactive); in the assay on K562, 20.7 µM (inactive). Further, the GI50 was 17.7 µM (inactive) in the assay with Malme-3M; 24.7 µM (inactive) in the assay with NCI-H226; 11.7 µM (inactive) in the assay with NCI-H23; 48 µM (inactive) in the assay on OVCAR-3; 18.3 µM (inactive) in the assay on OVCAR-4; 46 µM (inactive) with OVCAR-5. Moreover, the GI50 in the assay with PC-3 is 21.5 µM (inactive); with RXF 393, 58.1 µM (inactive); in the assay with SF-268 it was 43.2 µM (inactive); with SK-MEL-2, 63.5 µM (inactive); in the assay with SK-MEL-5, 14.5 µM (inactive); in the assay with SK-OV-3, > 100 µM (inactive). Besides, the GI50 with UO-31 is 36.4 µM (inactive).

Consider `O=S(=O)(O)c1cc(/N=N/c2c(O)ccc3ccccc23)cc2c(S(=O)(=O)O)cccc12`, for which the GI50 in the assay with 786-0, in the assay on A549, in the assay with HCT-116, in the assay with HOP-92, in the assay with HT-29 and with K562 was > 100 µM (inactive) in each case. For the same compound, the GI50 in the assay on Malme-3M was 33.7 µM (inactive); in the assay with NCI-H226, > 100 µM (inactive); with OVCAR-3, > 100 µM (inactive); in the assay on OVCAR-4, > 100 µM (inactive); in the assay with OVCAR-5, > 100 µM (inactive); in the assay with PC-3, > 100 µM (inactive). Also, the GI50 in the assay on RXF 393, in the assay on SF-268, with SK-MEL-2, in the assay with SK-MEL-5, with SK-OV-3 and in the assay with UO-31 was > 100 µM (inactive) each time.

Turning to `Cc1ccc2c(c1)C(=O)C1(C2)Cc2ccc(C)cc2C1=O`, the GI50 with 786-0, in the assay with A549, in the assay with HCT-116, in the assay on HOP-92, with HT-29 and with K562 was > 100 µM (inactive) throughout. Further, the GI50 in the assay on LOX IMVI, in the assay on Malme-3M, with NCI-H23, in the assay with OVCAR-3, in the assay with OVCAR-4 and in the assay with OVCAR-5 was > 100 µM (inactive) in each case. Further, the GI50 in the assay with PC-3 was > 100 µM (inactive); in the assay with RXF 393, > 100 µM (inactive); in the assay with SF-268 it was > 100 µM (inactive); in the assay on SK-MEL-2, 87.3 µM (inactive); in the assay on SK-MEL-5, > 100 µM (inactive); in the assay with SK-OV-3, > 100 µM (inactive). For the same compound, the GI50 in the assay with UO-31 was > 100 µM (inactive).
